Laboratory results: PubChem BioAssay AID248 (DTP/NCI, 2004)
Toxic doses and inconclusive results are not listed. Rule as the data show it: active = T/C of 150% or more; inactive = T/C below 125%.

Test system: L1210 leukemia ip in BDF1 mice, survival T/C
Assay: NCI In Vivo Anticancer Drug Screen. Data for tumor model L1210 Leukemia (intraperitoneal) in B6D2F1 (BDF1) mice
Conditions: endpoint: mean survival time, higher = longer survival
How it was run: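 Value reflects the ratio of survival in compound-treated mice to survival in vehicle-treated controls, with both groups carrying the same transplanted tumor.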

[1] = dose: 25.0 mg/kg/injection, schedule: Q04DX002 (ip), vehicle: Klucel (hydroxypropylcellulose) (HPC)
[2] = dose: 100.0 mg/kg/injection, schedule: Q04DX002 (ip), vehicle: Klucel (hydroxypropylcellulose) (HPC)
[3] = dose: 100.0 mg/kg/injection, schedule: Q04DX003 (ip), vehicle: Klucel (hydroxypropylcellulose) (HPC)
[4] = dose: 100.0 mg/kg/injection, schedule: Q01DX001 (ip), vehicle: Klucel (hydroxypropylcellulose) (HPC)
[5] = dose: 100.0 mg/kg/injection, schedule: Q01DX009 (ip), vehicle: Klucel (hydroxypropylcellulose) (HPC)
[6] = dose: 200.0 mg/kg/injection, schedule: Q01DX009 (ip), vehicle: Klucel (hydroxypropylcellulose) (HPC)
[7] = dose: 400.0 mg/kg/injection, schedule: Q01DX009 (ip), vehicle: Klucel (hydroxypropylcellulose) (HPC)
[8] = dose: 100.0 mg/kg/injection, schedule: Q04DX003 (ip), vehicle: saline with Tween-80
[9] = dose: 200.0 mg/kg/injection, schedule: Q04DX003 (ip), vehicle: saline with Tween-80
[10] = dose: 400.0 mg/kg/injection, schedule: Q04DX003 (ip), vehicle: saline with Tween-80
[11] = dose: 100.0 mg/kg/injection, schedule: Q01DX009 (ip), vehicle: saline
[12] = dose: 100.0 mg/kg/injection, schedule: Q04DX003 (ip), vehicle: saline
[13] = dose: 200.0 mg/kg/injection, schedule: Q01DX009 (ip), vehicle: saline
[14] = dose: 200.0 mg/kg/injection, schedule: Q04DX003 (ip), vehicle: saline
[15] = dose: 400.0 mg/kg/injection, schedule: Q01DX009 (ip), vehicle: saline
[16] = dose: 400.0 mg/kg/injection, schedule: Q04DX003 (ip), vehicle: saline
[17] = dose: 25.0 mg/kg/injection, schedule: Q01DX009 (ip), vehicle: Klucel (hydroxypropylcellulose) (HPC)

Measured: T/C

CC(=O)NC(N)=S
inactive: [1] 108 % of control | dose: 50.0 mg/kg/injection, schedule: Q04DX002 (ip), vehicle: Klucel (hydroxypropylcellulose) (HPC) 108 % of control | dose: 50.0 mg/kg/injection, schedule: Q04DX003 (ip), vehicle: Klucel (hydroxypropylcellulose) (HPC) 97 % of control | [2] 108 % of control | [3] 103 % of control

O=C1CC(=O)N(Cc2ccccc2)C(=O)N1Cc1ccccc1
inactive: dose: 100.0 mg/kg/injection, schedule: Q01DX001 (ip), vehicle: carboxymethylcellulose (CMC) 86 % of control | dose: 200.0 mg/kg/injection, schedule: Q01DX001 (ip), vehicle: carboxymethylcellulose (CMC) 92 % of control | dose: 400.0 mg/kg/injection, schedule: Q01DX001 (ip), vehicle: carboxymethylcellulose (CMC) 90 % of control

O=C(OCCCCCCCCOC(=O)c1cccc([N+](=O)[O-])c1)c1cccc([N+](=O)[O-])c1
inactive: dose: 100.0 mg/kg/injection, schedule: Q01DX001 (ip), vehicle: other 102 % of control | dose: 200.0 mg/kg/injection, schedule: Q01DX001 (ip), vehicle: other 101 % of control | dose: 400.0 mg/kg/injection, schedule: Q01DX001 (ip), vehicle: other 96 % of control

CC(=O)Oc1c(C)c(Br)c(OC(C)=O)c(-c2c(C)cc(C)c(Br)c2C)c1Br
inactive: [4] 87 % of control | [3] 100 % of control | dose: 200.0 mg/kg/injection, schedule: Q01DX001 (ip), vehicle: Klucel (hydroxypropylcellulose) (HPC) 95 % of control | dose: 200.0 mg/kg/injection, schedule: Q04DX003 (ip), vehicle: Klucel (hydroxypropylcellulose) (HPC) 95 % of control | dose: 400.0 mg/kg/injection, schedule: Q01DX001 (ip), vehicle: Klucel (hydroxypropylcellulose) (HPC) 95 % of control | dose: 400.0 mg/kg/injection, schedule: Q04DX003 (ip), vehicle: Klucel (hydroxypropylcellulose) (HPC) 101 % of control

O=C1CSC(=S)N1/N=C/c1c[nH]c2ccc(Br)cc12
inactive: dose: 75.0 mg/kg/injection, schedule: Q01DX001 (ip), vehicle: carboxymethylcellulose (CMC) 100 % of control | dose: 150.0 mg/kg/injection, schedule: Q01DX001 (ip), vehicle: carboxymethylcellulose (CMC) 97 % of control

CCC(=O)OC1(c2ccccc2)CCN(CCCC(=O)c2ccccc2)CC1
inactive: dose: 20.0 mg/kg/injection, schedule: Q04DX003 (ip), vehicle: Klucel (hydroxypropylcellulose) (HPC) 111 % of control | dose: 40.0 mg/kg/injection, schedule: Q04DX003 (ip), vehicle: Klucel (hydroxypropylcellulose) (HPC) 96 % of control

CCOC(=O)/C(C)=C\c1c(Br)cc(Br)c(N)c1Br
inactive: dose: 75.0 mg/kg/injection, schedule: Q01DX009 (ip), vehicle: Klucel (hydroxypropylcellulose) (HPC) 97 % of control | dose: 150.0 mg/kg/injection, schedule: Q01DX009 (ip), vehicle: Klucel (hydroxypropylcellulose) (HPC) 97 % of control | dose: 300.0 mg/kg/injection, schedule: Q01DX009 (ip), vehicle: Klucel (hydroxypropylcellulose) (HPC) 95 % of control

O=C(Nc1cccc(C(=O)O)c1)Nc1cccc(Cl)c1Cl
inactive: [5] 98 % of control | [6] 95 % of control | [7] 105 % of control

Cc1cccc(C(C#N)(CCC#N)N2CCOCC2)n1 (stereo not drawn)
inactive: dose: 50.0 mg/kg/injection, schedule: Q01DX009 (ip), vehicle: saline with Tween-80 91 % of control | dose: 100.0 mg/kg/injection, schedule: Q01DX009 (ip), vehicle: saline with Tween-80 98 % of control | dose: 200.0 mg/kg/injection, schedule: Q01DX009 (ip), vehicle: saline with Tween-80 94 % of control

CC(=O)Nc1cccc2ccccc12
inactive: [8] 97 % of control | [9] 101 % of control | [10] 100 % of control

O=[N+]([O-])c1cccc(P(=O)(c2cccc([N+](=O)[O-])c2)c2cccc([N+](=O)[O-])c2)c1
inactive: [11] 101 % of control | [12] 93 % of control | [13] 101 % of control | [14] 104 % of control | [15] 95 % of control | [16] 106 % of control

C1=C(c2ccccc2)c2ccccc2C1(c1ccccc1)c1ccccc1
inactive: [8] 97 % of control | [9] 94 % of control | [10] 94 % of control

CCCN1c2c(nc(N)[nH]c2=O)NCC1CNc1ccc(C(=O)NC(CCC(=O)O)C(=O)O)cc1 (stereo not drawn)
inactive: [11] 96 % of control | [12] 108 % of control | [13] 101 % of control | [14] 97 % of control | [15] 96 % of control | [16] 101 % of control

OC(O)(C(F)(F)F)C(F)(F)F
inactive: dose: 12.5 mg/kg/injection, schedule: Q01DX005 (ip), vehicle: saline 108 % of control | dose: 12.5 mg/kg/injection, schedule: Q01DX009 (ip), vehicle: saline 95 % of control | dose: 25.0 mg/kg/injection, schedule: Q01DX005 (ip), vehicle: saline 108 % of control | dose: 25.0 mg/kg/injection, schedule: Q01DX009 (ip), vehicle: saline 104 % of control | dose: 50.0 mg/kg/injection, schedule: Q01DX005 (ip), vehicle: saline 104 % of control | dose: 50.0 mg/kg/injection, schedule: Q01DX009 (ip), vehicle: saline 92 % of control

CCOC(=O)c1ccc(NC(=O)Cn2cnc3c(=S)nc[nH]c32)cc1
inactive: dose: 25.0 mg/kg/injection, schedule: Q01DX001 (ip), vehicle: Klucel (hydroxypropylcellulose) (HPC) 92 % of control | dose: 50.0 mg/kg/injection, schedule: Q01DX001 (ip), vehicle: Klucel (hydroxypropylcellulose) (HPC) 106 % of control | [4] 95 % of control

CSCCOC(=O)C1C2CCC(O2)C1C(=O)O (stereo not drawn)
inactive: dose: 12.5 mg/kg/injection, schedule: Q04DX003 (ip), vehicle: Klucel (hydroxypropylcellulose) (HPC) 104 % of control

COc1cc2c(cc1OC)C1C(=CCC3c4cc(OC)c(OC)cc4CC[N+]31C)C=C2 (stereo not drawn)
inactive: dose: 6.25 mg/kg/injection, schedule: Q01DX009 (ip), vehicle: saline with Tween-80 95 % of control | dose: 12.5 mg/kg/injection, schedule: Q01DX009 (ip), vehicle: saline with Tween-80 99 % of control | dose: 25.0 mg/kg/injection, schedule: Q01DX009 (ip), vehicle: saline with Tween-80 102 % of control

CC1(C)N=C(N)N=C(N)N1c1cccc(CO)c1
inactive: dose: 100.0 mg/kg/injection, schedule: Q01DX001 (ip), vehicle: saline 96 % of control | dose: 200.0 mg/kg/injection, schedule: Q01DX001 (ip), vehicle: saline 105 % of control

COc1ccc(C(=O)OCCN(CCN(CCOC(=O)c2ccc(OC)cc2)C(=O)c2ccc(OC)cc2)C(=O)c2ccc(OC)cc2)cc1
inactive: [17] 88 % of control | dose: 50.0 mg/kg/injection, schedule: Q01DX009 (ip), vehicle: Klucel (hydroxypropylcellulose) (HPC) 96 % of control | [5] 89 % of control | [6] 94 % of control | [7] 105 % of control

CCCCN=Cc1ccccc1O.CCCCN=Cc1ccccc1O.[Cu]
inactive: dose: 6.25 mg/kg/injection, schedule: Q01DX009 (ip), vehicle: Klucel (hydroxypropylcellulose) (HPC) 91 % of control | dose: 12.5 mg/kg/injection, schedule: Q04DX002 (ip), vehicle: Klucel (hydroxypropylcellulose) (HPC) 107 % of control | [17] 97 % of control | [1] 89 % of control | [2] 104 % of control
